# In patent US20070077583A1, “Alpha enolase-directed diagnostics and therapeutics for cancer and chemotherapeutic drug resistance” (Aurelium BioPharma, Inc., priority 2005, published 2007):
# Entries after “also recorded” stand apart in the source; their conditions may differ. Like-named read-outs stand apart in the source and are kept apart here.
# What was measured:
# SKOV3 cells = assay: Cytotoxicity in α-enolase siRNA transfected SKOV3 cells; conditions: data not shown
# PC-3 cells = assay: MTT cytotoxicity assay, PC-3 cells transfected with α-enolase siRNA; type: cell-based; conditions: for EC50: Homo sapiens
# CaOV3 cells = assay: MTT cytotoxicity assay, CaOV3 cells transfected with α-enolase RNAi; type: cell-based, human; conditions: for EC50: Homo sapiens, 72 hours post transfection
# Description: These observations were expanded by targeting α-enolase in the ovarian cancer cell line, CaOV3.
# A549 cells [1] = assay: Clonogenic assay, A549 cells; type: cell-based, human; conditions: A549 cells vs control vectors
# MCF-7 cells [2] = assay: MTT cytotoxicity assay, MCF-7 cells transfected with α-enolase siRNA; type: cell-based, human; conditions: MCF-7 cells
# Procedure: For a typical siRNA transfection, 1 nmole of the annealed siRNA duplex was mixed with 1.4 ml of Opti-MEM reagent (Invitrogen). In another tube, […] of Oligofectamine reagent (Invitrogen, Carlsbad, Calif.) is mixed with […] of Opti-MEM. The two solutions are combined and mixed gently by inversion and incubated for 20 min. at RT. The resulting solution is added to the cultured cells drop by drop in a 10 cm dish (cells are approximately 40-50% confluent). The next day the transfected cells were trypsinized and seeded in 6 or 96-well plates and further incubated for the indicated amount of time (assay dependent) before further analysis.
# To evaluate the effect of α-enolase depletion on the chemosensitivity of cells to cytotoxic agents, MTT assays were performed in breast adenocarcinoma MCF-7 cells transfected with α-enolase specific siRNAs. […] The predicted EC50 values (the effective dose of a compound responsible for a positive effect half-way between baseline and maximum net impact) for the α-enolase-depleted cells are shown in Table 3. Similarly, results using other chemotherapeutic drugs are also shown in the table indicating the sensitivity of breast cancer tissue to α-enolase depletion.
# H460 cells = assay: MTT cytotoxicity assay, H460 cells transfected with α-enolase siRNA; type: cell-based, human; conditions: for EC50: Homo sapiens
# Procedure: To establish the effectiveness of α-enolase silencing on other cancer cell types, H460 non-small cell lung cancer cells were challenged with a chemotherapeutic drug, MTT cytotoxicity assays were carried out and survival curves plotted as shown in FIG. 17.
# MCF-7 cells [3] = assay: Clonogenic assay, MCF-7 cells; type: cell-based, human; conditions: MCF-7 cells
# Procedure: Utilizing a clonogenic assay generated additional information concerning cell viability after drug-resistant cells were exposed to siRNA and chemotherapeutics. […] Taxol or Vincristine was added at IC10 or IC50 concentrations determined from MTT experiments for MCF-7 cells. […] The cells were further incubated for an additional 7 days. At the end of the incubation, the cells were stained with addition of a 0.5% Methylene Blue solution in 50% ethanol for 15 min. at RT. The staining solution was then removed and plates were dried overnight. The plates were scanned and the stained colonies were solubilized in 0.1% SDS. The absorbance of the resulting solution was determined by spectrophotometry at 660 nm.
# MDA-435 cells = assay: cells; type: cell-based, human; conditions: MDA-435 cells; for EC50: Homo sapiens, MDA435
# Procedure: Similar tests utilizing α-enolase siRNA were performed on MDA-435 breast adenocarcinoma cells. Chemosensitivity to various drugs was determined for the MDA-435 cells as described above.
# SW-480 cells = assay: cells; type: cell-based, human; conditions: Homo sapiens, SW480, SW-480 cells
# Procedure: The colorectal adenocarcinoma cell line SW-480 was treated with α-enolase-directed siRNA using the procedures described above.
# A549 cells [4] = assay: MTT cytotoxicity assay, A549 cells transfected with α-enolase siRNA; conditions: for EC50: Homo sapiens
# Procedure: Small interfering RNA transfected cells were seeded in triplicate into 96-well plates at 5×10^3 cells/well 48 hrs post-transfection. The cells were incubated for an additional 16-24 hrs before they were exposed to increasing concentrations of cytotoxic drugs. […] Appropriate dilutions were made in the respective media for each cell line. Following addition of drugs, incubation was continued for an additional 72 hrs. Twenty-five ml of MTT dye (5 mg/ml) were added into each well and the plate was further incubated at 37° C. for 4 hrs. The dye was solubilized with 10% Triton X-100, 0.01 N HCl and further incubated at 37° C. in the dark for 30 min. Cell viability was determined by measure of absorption at 570 nm in a Wallac multiwell plate reader (PerkinElmer, Inc., Boston, Mass.). The averages of triplicate wells were plotted using the Prism software (GraphPad Software, Inc., San Diego, Calif.).
# To investigate if α-enolase is broadly involved in mediating drug resistance to microtubule targeting agents, non-small cell lung cancer cell lines A549 and H460, respectively, were transfected with α-enolase siRNA and enolase expression and viability were assessed.
# [5] = control, read-out: Control (EC50)
# [6] = α-enolase specific siRNA, read-out: α-Enolase (EC50)
smiles,measurement,setting,value
CC(=O)O[C@H]1C(=O)[C@@]2(C)[C@H]([C@H](OC(=O)c3ccccc3)[C@]3(O)C[C@H](OC(=O)[C@H](O)[C@@H](NC(=O)c4ccccc4)c4ccccc4)C(C)=C1C3(C)C)[C@]1(OC(C)=O)CO[C@@H]1C[C@@H]2O [Taxol],cytotoxic effect in α-enolase-depleted cells,SKOV3 cells,enhanced cytotoxic effect
same,enhancement in sensitivity with α-enolase silencing,PC-3 cells,10 fold
same,EC50,PC-3 cells; [5],0.199 nM
same,EC50,PC-3 cells; [6],0.0206 nM
same,decrease of chemotherapeutic drug resistance by α-enolase-directed siRNA vs mock siRNA,CaOV3 cells,24.6 fold
same,EC50,"CaOV3 cells; Caov-3, control, read-out: Control (EC50)",2.69 nM
same,EC50,"CaOV3 cells; Caov-3, α-enolase specific RNAi, read-out: α-Enolase (EC50)",0.11 nM
same,sensitivity of α-enolase siRNA cells in clonogenic assay,A549 cells [1],more sensitive
same,EC50,"MCF-7 cells [2]; Homo sapiens, MCF7, control siRNA, 72 hrs drug, read-out: Control (EC50)",78.4 nM
same,IC50,"MCF-7 cells [2]; Homo sapiens, MCF7, from MTT experiments",100 nM
same,EC50,"MCF-7 cells [2]; Homo sapiens, MCF7, α-enolase specific siRNA, read-out: α-Enolase (EC50)",7.16 nM
same,sensitivity of α-enolase silenced cells,MCF-7 cells [2],substantial increase in their sensitivity
same,IC10,MCF-7 cells [2]; from MTT experiments,1 nM
same,EC50 lower in α-enolase-depleted cells vs control siRNA treated cells,MCF-7 cells [2]; on average,10 fold
same,viability of α-enolase-silenced cells under drug treatment vs control cells,H460 cells,greatest decreases in viability
same,EC50,"H460 cells; NCI-H460, control, read-out: Control (EC50)",2.24 nM
same,EC50,"H460 cells; NCI-H460, α-enolase specific siRNA, read-out: α-Enolase (EC50)",0.602 nM
same,cytotoxicity in α-enolase depleted cells in clonogenic assay,MCF-7 cells [3],enhanced taxol cytotoxicity
same,EC50,"MDA-435 cells; Eno-1 siRNA, read-out: Eno-1 (EC50)",0.334 nM
same,EC50,"MDA-435 cells; Eno-1 stealth siRNA, read-out: Eno-1 ST (EC50)",0.149 nM
same,EC50,"MDA-435 cells; control siRNA, read-out: Control (EC50)",1.1 nM
same,EC50,"MDA-435 cells; mock transfection, read-out: Mock (EC50)",0.445 nM
same,sensitivity of α-enolase-silenced cells,MDA-435 cells,Increases in sensitivity
same,EC50,SW-480 cells; [5],0.276 nM
same,EC50,SW-480 cells; [6],0.033 nM
same,chemosensitivity of α-enolase-silenced cells (words),A549 cells [4]; A549 cells,enhanced chemosensitivity; also recorded: significant shifts in their chemosensitivities
same,EC50,"A549 cells [4]; A549, read-out: Control (EC50)",5.94 nM
same,EC50,"A549 cells [4]; A549, read-out: α-Enolase (EC50)",3.16 nM
